Experimental data as given in US8147892B2, “Kokumi flavour compounds and use” (Givaudan SA, priority 2005, dated 2012).
Entries after “also recorded” stand apart in the source; their conditions may differ.

Tests used:
sensory panel [1] = test: Sensory triangle test in chicken broth (kokumi intensity, taste profile); details: for kokumi taste (found or not): tested as described in Example 1 (chicken broth), concentration not given; for Sensory descriptors / effect on mouthfulness and complexity of the taste profile / Kokumi intensity (0-5): chicken broth; for Sensory descriptors / Kokumi intensity (0-5): pH 6.5; for Kokumi intensity (0-5): scale 0 to 5 (5 most intensive), negative control 2
Protocol: (§1) Unless otherwise indicated, all sensory tests are triangle tests and are performed according to the guidelines in “Amtliche Sammlung von Untersuchungsverfahren nach §35 LMBG (Lebensmittel-und Bedarfsgegenständegesetz)”; L 00.90 7, Untersuchung von Lebensmitteln, Sensorische Prüfverfahren, Dreiecksprüfung (Übemahme der gleichnahmigen Deutschen Norm DIN ISO 4120, Ausgabe January 1995), as follows:
The sensory panel is trained to evaluate the taste of aqueous solutions (4 ml each) of the following standard taste compounds by using a triangle test as described in the literature (Wieser and Belitz, Z. Lebensm. Unters. Forsch., 1975, 159, 65-72): sucrose (40 mmol/L) for sweet taste; citric acid (5 mmol/L) for sour taste; NaCl (12 mmol/L salty taste; caffeine (2 mmol/L) for bitter taste; and monosodium glutamate (MSG; 6 mmol/L) for umami taste. For kokumi taste, a solution of glutathione (10 mmol/L) in diluted chicken broth concentrate (Goumet Bouillon Huhn, Maggi, Singen, Germany; 3 g/100 g bottled water (Evian®)) is prepared and compared to the taste of chicken broth with no glutathione added.
(§2) All sensory analyses are performed in a sensory panel room at 22-25° C. over three different sessions by a trained panel of 8 to 10 individuals.
(§3) For recording the taste profiles, samples are prepared as indicated in the examples below. Taste profiles of samples are determined in a triangle test in three different sessions. Panellists refrain from eating or drinking for at least 1 hour prior to the session. At the start of the session and before each trial, the subject rinsed with water and expectorated. The participants receive a set of two blanks and one taste sample. Liquid samples are swirled around in the mouth briefly and expectorated. Solid samples are chewed for 20 seconds and then expectorated. […] Each sample with additive is compared to two reference samples without additives. Kokumi intensity is rated from 0-5 according to a scale from 0 to 5 (with 5 most intensive). The additive is added to a consumable and the sample is homogenised. The samples are presented to the sensory panel directly after homogenisation. The sensory panel included 8 trained individuals with exception of example 2, here the panel consists of 10 trained individuals.
Chicken Broth is prepared by dilution of 3 g chicken broth concentrate (Gourmet Bouillon Huhn; Maggi, Singen, Germany) with 100 ml water (Evian). Additives are added as specified in table below.
The pH-value of all samples is adjusted to 6.5 using formic acid (0.1 moVL) or sodium hydroxide (0.1 mol/L).
For each sample, kokumi intensity is rated and panelists are asked to describe sensory characteristics.
Compounds of formula I as listed in the table below are tested in chicken broth (prepared as described in example 1) and compared to hGSH.

sensory panel [2] = test: Sensory triangle test in ketchup; details: 2500 ppm; for Test results (sensory description vs reference): ketchup (Kraft)
Protocol: as §1, §2, §3
Glutathione (GSH) and homoglutathione (hGSH) are added to ketchup (Kraft) in a concentration of 2500 ppm.

sensory panel [3] = test: Sensory triangle test in cream cheese; details: 1000 ppm
From the text: The sensory panel included 8 trained individuals with exception of example 2, here the panel consists of 10 trained individuals.
The mixture is stirred until homogeneous.

sensory panel [4] = test: Sensory triangle test in tomato juice; details: for Test results (sensory description vs reference): listed as γ-Glu-Cys-β-Ala
Protocol: as §1, §2, §3
Glutathione and homoglutathione are added to tomato juice (Albi, Germany) in the concentrations indicated below.

For `C[C@H](N)C(=O)O` [Ala], the “kokumi taste (found or not)” value (sensory panel [1]) was “not to have a kokumi taste”.

In the case of `NC(=O)C[C@H](N)C(=O)O` [Asn], the “kokumi taste (found or not)” value (sensory panel [1]) is reported as “not to have a kokumi taste”.

In the case of `N[C@@H](CC(=O)O)C(=O)O` [Asp], the “kokumi taste (found or not)” value (sensory panel [1]) is reported as “not to have a kokumi taste”.

For `N[C@@H](CSSC[C@H](N)C(=O)O)C(=O)O` [Cys-S—S-Cys], the “kokumi taste (found or not)” value (sensory panel [1]) was “not to have a kokumi taste”.

For `N[C@@H](CS)C(=O)O` [Cys], the “kokumi taste (found or not)” value (sensory panel [1]) was “not to have a kokumi taste”.

For `N[C@@H](CCC(=O)N[C@@H](CS)C(=O)NCC(=O)O)C(=O)O` [GSH, Gamma-L-glutamyl-L-cysteinyl-glycine], the “Test results (sensory description vs reference)” value (sensory panel [2]) was “the observed effect is lower”.

With `NC(=O)CC[C@H](N)C(=O)O` [Gln] the “kokumi taste (found or not)” value (sensory panel [1]) was “not to have a kokumi taste”.

For `N[C@@H](CCC(=O)O)C(=O)O` [Glu], the “kokumi taste (found or not)” value (sensory panel [1]) was “not to have a kokumi taste”.

With `N[C@@H](CCC(=O)O)C(=O)[O-].[Na+]` [MSG, mono sodium glutamate] the Sensory descriptors (sensory panel [1]; additive 10 mmol/L) was “higher umami (taste of MSG) intensity; also recorded: Increased umami taste” and the “effect on mouthfulness and complexity of the taste profile” value (sensory panel [1]; positive control 10 mmol/L) was “no effect on mouthfulness and complexity”.

For `[Cl-].[Na+]` [NaCl], the Sensory descriptors (sensory panel [1]; additive 30 mmol/L) was “increased salt taste”, the Sensory descriptors (sensory panel [1]; additive 30 mmol/L, listed as NaCI) was “more salty than the negative control” and the “Kokumi intensity (0-5)” value (sensory panel [1]; additive 30 mmol/L) was 2. The “effect on mouthfulness and complexity of the taste profile” value (sensory panel [1]; positive control 30 mmol/L) was “no effect on mouthfulness and complexity”.

For `N[C@@H](CCC(=O)N[C@@H](CS)C(=O)NCCC(=O)O)C(=O)O` [hGSH, Gamma-L-glutamyl-L-cysteinyl-beta-alanine], the Sensory descriptors (sensory panel [1]; additive 10 mmol/L) was “increases the mouthfulness, complexity, and long lasting taste sensation”, the “Kokumi intensity (0-5)” value (sensory panel [1]; additive 10 mmol/L) was 4.0 and the “Test results (sensory description vs reference)” value (sensory panel [3]; cream cheese (Philadelphia, Kraft)) was “more mouthfulness, richness, and kokumi-like complexity”. For the same compound, the “panelists finding the sample different from the reference sample and preferred” value (sensory panel [3]; cream cheese) was 9 out of a panel of 10, the “panelists preferring the sample” value (sensory panel [4]; 250 ppm) was 7 out of 8 panelists and the “Test results (sensory description vs reference)” value (sensory panel [4]; 250 ppm) was “more intensive and well-balanced kokumi taste”. For the same compound, the “Test results (sensory description vs reference)” value (sensory panel [4]; 5000 ppm) was “even more pronounced kokumi sensation compared to an isoconcentrated glutathione sample”, the “Test results (sensory description vs reference)” value (sensory panel [2]) was “more meaty, bouillon-like, and intensified overall taste” and the “panelists indicating more meaty, bouillon-like, and intensified overall taste” value (sensory panel [2]; ketchup) was 7 out of 8 panelists.

`NCCC(=O)O` [β-Ala] was tested, and the “kokumi taste (found or not)” value (sensory panel [1]) was “not to have a kokumi taste”.
